# Results reported in ChEMBL document CHEMBL1129123, “Drupangtonine, a novel antileukemic alkaloid from Cephalotaxus harringtonia var. drupacea” (Bioorg Med Chem Lett, 1996).
# System: P388
# Experiment: Antileukemic activity against P-388 leukemia cells.
# Format: functional, cell-based
# Conditions: Mus musculus
row,Compound,IC50 [µg/mL]
1,"COC(=O)C[C@](O)(CCC(C)C)C(=O)O[C@@H]1C(OC)=CC23CCCN2CCc2cc4c(cc2[C@H]13)OCO4 (single isomer, unassigned) [DEOXYHARRINGTONINE]",0.0075
2,"COC(=O)C[C@](O)(CCCC(C)(C)O)C(=O)O[C@@H]1C(OC)=CC23CCCN2CCc2cc4c(cc2[C@H]13)OCO4 (single isomer, unassigned) [OMACETAXINE MEPESUCCINATE]",0.017
3,COC(=O)C[C@](O)(CCC(C)C)C(=O)O[C@H]1[C@H]2c3cc4c(cc3[C@H]3CN5CCC[C@]25C[C@]1(OC)O3)OCO4,0.007
4,"COC(=O)C[C@](O)(CCC(C)(C)O)C(=O)O[C@@H]1C(OC)=CC23CCCN2CCc2cc4c(cc2[C@H]13)OCO4 (single isomer, unassigned) [HARRINGTONINE]",0.032
